Measured values taken from publication PMC12477080, “Polychlorinated biphenyls (PCBs) interact with drug metabolism in vivo” (Archives of Toxicology, 2025).

Key:
CYP2B6 = experiment: CYP phenotyping cocktail clinical study: efavirenz/8-OH-efavirenz metabolic ratio and its association with PCB plasma levels; conditions: linear regression of MR AUC0–8 h 8-OH-efavirenz/efavirenz (CYP2B6 activity) on PCB plasma concentration
Description: (§1) The participants were ascertained not to have any acute disease by medical history, physical examination, laboratory screening, including hematological and biochemical blood tests, and a 12-lead electrocardiogram. […] The demographic data of the subjects are summarized in Table 1 in the supplemental data. At the enrollment visit, 2 blood samples (9 ml each) were collected into ethylenediaminetetraacetic acid (EDTA)-containing tubes taken from each subject for analyzing the plasma concentrations of PCB congeners and for pharmacogenetic analysis.
(§2) Participants stayed fasted from the evening before until 3 h after drug administration. After that, a meal was provided. Water and juice were permitted but alcoholic and caffeinated beverages were not allowed from the evening before drug administration until the last blood sample was taken on the next day. Venous blood samples (9 ml each) were collected through an intravenous catheter immediately before and 0.25, 0.5, 0.75, 1, 1.5, 2, 2.5, 3, 4, 5, 6, 7, 8, and 24 h after drug administration. Blood was drawn into EDTA-coated tubes, centrifuged at 1500 g for 10 min at 4 °C, and plasma samples were subsequently stored at − 80 °C until further analysis. After completely voiding the bladder immediately before drug administration, the participants collected urine from 0 to 24 h after drug administration. After weighing the collected urine, a 10 ml aliquot of each fraction was taken.
(§3) Commercially sourced standards and internal standards were used for quantification (see Supplemental Materials). In brief, 20 µl of the plasma samples were protein-precipitated with 80 µl methanol containing all internal standards or were treated for 16 h at 37 °C with 2 µl β-glucuronidase (1,000,000 Units) for deconjugation before protein precipitation with 78 µl methanol containing internal standards. Samples were centrifuged for 20 min, at 4 °C and 17,000 × g, and 40 µl of the supernatants were diluted with 40 µl LC–MS grade water, centrifuged again for 5 min at 4 °C and 17,000 × g and 50 µl supernatant were transferred to LC–MS vials 5 µl of the samples were injected into the LC–MS system.
(§4) An Agilent 1290 Infinity II UHPLC coupled with a SCIEX QTRAP6500 + triple quadrupole mass spectrometer was used. Chromatographic separation was achieved on an Agilent Poroshell 120 EC-C18 (1.9 µm, 2.1 × 50 mm) column with A: 0.1% formic acid in water and B: methanol with a flow rate of 0.7 ml/min and a total run time of 8.5 min. Analytes were eluted using a gradient program. The following gradient steps represent gradual changes in % B over time: 5% B from 0 to 0.2 min, 30% B at 2 min, 34% B at 4.8 min, 95% B at 6.5 min, 95% B at 7.5 min and re-equilibrating to 5% B at 7.7 min and 5%B till 8.5 min. A representative chromatogram is shown in supplemental Fig. 2. The scheduled MRM mode was applied for analyte detection in both positive and negative ESI modes (Supplementary Table 4). Calibration curves were constructed with linear regression using weighted (1/x^2) models (detailed information in supplemental methods).
(§5) Partial areas under the plasma concentration–time curves from 0 to 3 h (AUC0–3 h), from 0 to 4 h (AUC0–4 h), and from 0 to 8 h (AUC0–8 h) were calculated based on measured concentrations by the linear trapezoidal rule without extrapolation. […] Metabolic ratios (MR) were calculated by dividing the partial AUC of the metabolite by the respective partial AUC of the parent drug. The MRs were used as biomarkers for the individual CYP activities of the study subjects.

CYP2C9 [1] = experiment: CYP phenotyping cocktail clinical study: torsemide/OH-torsemide metabolic ratio and its association with PCB plasma levels
Description: as §1, §2, §3, §4, §5

CYP2D6 = experiment: CYP phenotyping cocktail clinical study: metoprolol/α-OH-metoprolol metabolic ratio and its association with PCB plasma levels; conditions: linear regression of MR AUC0–8 h α-OH-metoprolol/metoprolol (CYP2D6 activity) on PCB plasma concentration
Description: as §1, §2, §3, §4, §5

[2] = Determination of PCB concentrations in plasma of HELPcB and control participants; type: in vivo; conditions: human plasma
Description: The laboratory regularly participates in round robins for the determination of PCBs in plasma (www.g-equas.de).
Plasma concentrations of PCB congeners were quantified in blood samples from all participants using gas chromatography/mass spectrometry (GC–MS) (Fig. 2A and Supplementary Table 2). A total of 19 PCB congeners were measured in control (n = 10) and HELPcB (n = 10) participants, with PCBs detected in all individuals. […] In the control group, PCB plasma concentrations primarily reflected background environmental exposure, such as dietary intake, representing the general population’s burden.

[3] = target: HEK293 cells overexpressing CYP2C9 (Homo sapiens, UniProt P11712); conditions: 0.1, 0.5, 1 µM PCB74, 24 h, then 10 µM torsemide 24 h
Description: (§6) CYP1A2 and CYP2C9 enzyme activity was first assessed using a luciferase-based P450-Glo™ screening system (Promega, Madison, WI, USA) following the manufacturer’s instructions. The reaction mixture consisted of 1 nM recombinant enzyme (CYP1A2 or CYP2C9), 250 µM luciferin–ME substrate, 0.1 M potassium phosphate buffer (pH 7.4), and an NADPH regeneration system (including NADP⁺, glucose-6-phosphate, MgCl₂, and glucose-6-phosphate dehydrogenase), in a total volume of 50 µL. Controls for enzyme inhibition included α-naphthoflavone (1 µM) for CYP1A2 and sulfaphenazole (2 µM) for CYP2C9. After preincubation at 37 °C for 10 min (excluding NADPH), the reaction was initiated by adding the NADPH regeneration system and incubated for 30 min. To terminate the reaction and generate luminescence, 50 µL of Luciferin Detection Reagent was added, followed by a 20-min incubation at room temperature. Luminescence was measured using a luminometer, with light intensity proportional to CYP activity. […] Enzyme activity was quantified relative to a d-luciferin standard curve and expressed as pmol luciferin/min/pmol CYP. […] Cells were maintained at 37 °C with 5% CO₂ throughout the experiment. […] Supernatants were transferred to LC–MS vials and analyzed for relevant metabolites. Details on metabolite quantification are provided in the supplemental file. […]

recombinant CYP2C9 = recombinant CYP2C9 (Homo sapiens, UniProt P11712); conditions: PCB74 1–10 µM; Luciferin–ME substrate
Description: as §6

CYP2C9 mRNA = conditions: primary human hepatocytes, three donors, 48 h exposure; PCB74 0.1 and 0.5 µM
CYP1A2 = tested on: CYP1A2; design: method as in Solan and Lavado [2023]; conditions: ref Solan and Lavado [2023]; cited from earlier work
CYP2C9 [4] = tested on: CYP2C9; design: method as in Makia et al. [2014]; conditions: cFos and JunD binding to CYP2C9 promoter; ref Makia et al. [2014]; cited from earlier work
[5] = linear regression of MR AUC0–8 h OH-torsemide/torsemide (CYP2C9 activity) on PCB plasma concentration

HEK293 cells overexpressing CYP2C9, sequence (P11712 whole entry): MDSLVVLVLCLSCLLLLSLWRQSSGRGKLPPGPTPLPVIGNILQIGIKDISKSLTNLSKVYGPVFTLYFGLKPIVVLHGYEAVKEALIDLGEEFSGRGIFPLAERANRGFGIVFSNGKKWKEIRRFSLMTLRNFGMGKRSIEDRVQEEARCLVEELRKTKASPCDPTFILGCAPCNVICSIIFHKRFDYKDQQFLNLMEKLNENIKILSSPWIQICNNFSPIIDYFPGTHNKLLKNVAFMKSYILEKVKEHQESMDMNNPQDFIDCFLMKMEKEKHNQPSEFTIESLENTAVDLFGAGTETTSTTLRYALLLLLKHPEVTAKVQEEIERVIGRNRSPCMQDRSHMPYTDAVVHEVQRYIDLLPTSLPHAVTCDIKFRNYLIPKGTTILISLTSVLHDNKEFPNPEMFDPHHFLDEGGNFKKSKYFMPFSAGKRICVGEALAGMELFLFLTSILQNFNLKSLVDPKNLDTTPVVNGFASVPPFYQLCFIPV
recombinant CYP2C9, sequence (P11712 whole entry): as above

Clc1ccc(-c2cc(Cl)c(Cl)cc2Cl)cc1 [PCB74]
t value (CYP2B6): 0,808
β (standardized regression coefficient) (CYP2B6): 0,204
t value (CYP2B6; PM excl): 0,622
β (standardized regression coefficient) (CYP2B6; PM excl): 0,170
association with CYP2C9 activity in hierarchical generalized mixed model (CYP2C9 [1]; adjusted for co-factors (smoking status, gender, BMI, age)): became significant when BMI, gender, or all factors were included as co-factors
t value (CYP2C9 [1]; [5]): 1,826
β (standardized regression coefficient) (CYP2C9 [1]; [5]): 0,395
t value (CYP2C9 [1]; linear regression of MR AUC0–8 h OH-torsemide/torsemide (CYP2C9 activity) on PCB plasma concentration, PM excl): 1,723
t value (CYP2D6): 1,723
β (standardized regression coefficient) (CYP2D6): 0,376
PCB plasma concentration, Mean [±SD] HELPcB ([2]; HELPcB (occupationally exposed) group): 0.129 ± 0.121 ng/mL
PCB plasma concentration, Geometric mean, HELPcB ([2]; HELPcB group, N 10): 0.086 ng/mL
PCB plasma concentration, Mean [±SD] all ([2]; all participants): 0.071 ± 0.102 ng/mL
PCB plasma concentration, Mean [±SD] control ([2]; control group (background exposure)): 0.014 ± 0.011 ng/mL
PCB plasma concentration, Geometric mean, Control ([2]; control group, N 10): 0.010 ng/mL
effect on CYP2C9 activity in HEK293 cells (torsemide probe) [3]: did not significantly modulate CYP2C9 activity
effect on CYP2C9 enzyme activity (luminescence) (recombinant CYP2C9): remained unaffected
effect on CYP2C9 mRNA expression (CYP2C9 mRNA): did not significantly increase CYP2C9 mRNA expression

O=S(=O)(O)C(F)(F)C(F)(F)C(F)(F)C(F)(F)C(F)(F)C(F)(F)C(F)(F)C(F)(F)F [PFOS]
effect on CYP1A2 activity (CYP1A2): inhibits CYP1A2 activity

CC(C)(C)c1cc(O)ccc1O [tBHQ, tert-butylhydroquinone]
effect on CYP2C9 expression (CYP2C9 [4]): induces CYP2C9 expression via AP-1 activation
